From PMC5050390, “Transport of Corilagin, Gallic Acid, and Ellagic Acid from Fructus Phyllanthi Tannin Fraction in Caco-2 Cell Monolayers” (Evidence-based Complementary and Alternative Medicine : eCAM, 2016)

Experiments:
Caco-2 cell monolayers = test: Transport of PTF constituents across Caco-2 cell monolayers (LC-MS quantification); type: in vitro ADME, human; parameters: efflux ratio at 180 min / Papp A→B at 180 min: dose or concentration left out as unconfirmed; details: for change of transport with tight junction modulators SDS and PLL: SDS and PLL 50 μg/mL; for PDR (ratio of P app BL→AP to P app AP→BL): compound in PTF 1.00 mg/mL; for change of transport (P app) in presence of indomethacin: indomethacin 10 μM (MRPs/OATP inhibitor); for change of transport (P app) in presence of indomethacin / change of transport (P app) in presence of phloridzin / change of transport (P app) in presence of verapamil: PTF 1.00 mg/mL, 120 min; for change of transport (P app) in presence of phloridzin: phloridzin 50 μM (SGLT1 inhibitor); for change of transport (P app) in presence of verapamil: verapamil 100 μM (P-gp inhibitor)
Method: (§1) When cells were cultured to 80% confluence, they were seeded in 12-well Transwell-Clear plates at a density of 1.2 × 10^5 cells/insert. Cells were cultured for 21 days to reach confluence and functional differentiation. Complete medium was replaced every 2 days for the first 2 weeks and daily renewed for the last 7 days. All cells were between passages 35 and 55. […] After 21-day culture, the complete medium was removed and the monolayer was washed three times and balanced with HBSS (previously warmed to 37°C) for 30 min. […] […] All samples were dried with organomation. Before analyzing, the dry samples were dissolved in methanol/water/acetic acid (200 : 200 : 1, v/v/v) and the insoluble substance was eliminated with centrifugation 12000 rpm for 5 min. Protein inhibitors including verapamil (100 μM), indomethacin (10 μM), and phloridzin (50 μM) were employed to investigate the role of different transporters. Epithelial tight junction modulators such as SDS (50 μg/mL) and PLL (50 μg/mL) were used to evaluate the role of paracellular permeability. Hydrophilic marker sodium fluorescein (0.6 mg/mL) was used for the evaluation of the integrity of the cell monolayer. […] The column temperature was 20°C and the injection volume was 20 μL. MS/MS analysis was acquired using an Agilent 6410 triple quadrupole mass spectrometer (Agilent Technologies, CA, USA) equipped with an electrospray ionisation (ESI) in the negative mode. Other analytical conditions included the drying gas temperature of 300°C, the drying gas flow of 11 L/min, the nebulizer pressure of 35 psi, and the capillary voltage of 4 kV. To get the highest abundance, the fragmentor voltage and collision energy were optimized. Data acquisition and processing were accepted by Agilent Mass Hunter workstation software version B.05.00 using multiple reaction monitoring (MRM). The quantification was performed using external standard method. […] Here, dC/dt is the change in concentration on the receiver side over time; V is the volume of the solution in the receiver chamber; A is the surface area of the cell monolayer; C 0 is the initial concentration in the donor chamber. PDR is the ratio of P app(BL→AP) to P app(AP→BL).

[1] = as above; type: in vitro ADME, human; parameters: efflux ratio at 180 min / Papp A→B at 180 min: dose or concentration left out as unconfirmed; details: human, Caco-2, 180 min; for efflux ratio at 180 min: read-out: PDR (ratio of P app BL→AP to P app AP→BL)
Method: as §1

[2] = parameters: method as in earlier work; details: rats, oral PTF 6 g/kg; cited from earlier work
Caco-2 cell monolayer = test system: Caco-2 cell monolayer; parameters: method as in PMID 14646189; details: pure compound; cited from earlier work
[3] = compound in PTF 1.00 mg/mL, mean ± SEM (n = 3)

| Structure (SMILES) | P app of marker across the monolayers (Caco-2 cell monolayers; sodium fluorescein 0.6 mg/mL, monolayer integrity check) | efflux ratio at 180 min [1] | Papp A→B at 180 min, 1 mg/mL [1, 3] | Papp B→A at 180 min [1, 3] | change of transport with tight junction modulators SDS and PLL (Caco-2 cell monolayers) | PDR (ratio of P app BL→AP to P app AP→BL) (Caco-2 cell monolayers; 180 min) | secretion transport P app (BL→AP) (Caco-2 cell monolayers; human, Caco-2, 180 min) | change of transport (P app) in presence of indomethacin (Caco-2 cell monolayers) | change of transport (P app) in presence of phloridzin (Caco-2 cell monolayers) | change of transport (P app) in presence of verapamil (Caco-2 cell monolayers) | peak concentration (C max) [2] | Papp A→B at 180 min ([1]; mean ± SEM (n = 3)) | secretion transport P app (BL→AP) (Caco-2 cell monolayers; compound in PTF) | P app of GA across Caco-2 cell monolayer (Caco-2 cell monolayer) | absorption transport P app (AP→BL) (Caco-2 cell monolayers; compound in PTF) |
| --- | --- | --- | --- | --- | --- | --- | --- | --- | --- | --- | --- | --- | --- | --- | --- |
| O=C([O-])c1ccccc1-c1c2ccc(=O)cc-2oc2cc([O-])ccc12.[Na+].[Na+] [sodium fluorescein, reference compound] | 3.16 ± 0.25 × 10^−7 cm/s |  |  |  |  |  |  |  |  |  |  |  |  |  |  |
| O=C(O[C@@H]1O[C@@H]2COC(=O)c3cc(O)c(O)c(O)c3-c3c(cc(O)c(O)c3O)C(=O)O[C@H]([C@H]1O)[C@@H]2O)c1cc(O)c(O)c(O)c1 [Corilagin] |  | 12.5 | 0.174 ± 0.019 ×10⁻⁶ cm/s | 2.18 ± 0.228 ×10⁻⁶ cm/s | greatly improved | more than 1.5 | ~10^−6 cm/s | significantly increased | no considerable change | significantly increased | lower than 10.47 μg/mL |  |  |  |  |
| O=C(O)c1cc(O)c(O)c(O)c1 [Gallic acid] |  | 4.17 |  | 0.1 ± 0.009 ×10⁻⁶ cm/s | greatly improved | more than 1.5 |  | significantly increased | no considerable change | significantly increased | lower than 10.47 μg/mL | 0.024 ± 0.004 ×10⁻⁶ cm/s | ~10^−7 cm/s | about 0.20 × 10^−6 cm/s |  |
| O=c1oc2c(O)c(O)cc3c(=O)oc4c(O)c(O)cc1c4c23 [Ellagic acid] |  | 1.31 |  | 0.456 ± 0.01 ×10⁻⁶ cm/s | greatly improved | less than 1.5 |  | strongly decreased | strongly decreased | no substantial difference | lower than 10.47 μg/mL | 0.347 ± 0.018 ×10⁻⁶ cm/s | ~10^−7 cm/s |  | ~10^−7 cm/s |
